Counter-ions that a name gives are not always drawn.
Experiments:
[1] = molecular target: T1, recombinant human LTA4 hydrolase (Homo sapiens, UniProt P09960); test: In vitro assay testing inhibitory activity against purified recombinant human LTA4 hydrolase (LTB4 formed measured by LC-MS/MS); type: biochemical; conditions: purified recombinant human LTA4 hydrolase 200 nM, LTA4 2 μM, 120 sec at room temperature; read-out: AvgIC50
T1 construct: A human LTA4 hydrolase full-length cDNA clone (NM_000895) was purchased from OriGene Technologies; made in house; host or cells: Escherichia coli BL21-AI
T1 sequence (P09960 1-611): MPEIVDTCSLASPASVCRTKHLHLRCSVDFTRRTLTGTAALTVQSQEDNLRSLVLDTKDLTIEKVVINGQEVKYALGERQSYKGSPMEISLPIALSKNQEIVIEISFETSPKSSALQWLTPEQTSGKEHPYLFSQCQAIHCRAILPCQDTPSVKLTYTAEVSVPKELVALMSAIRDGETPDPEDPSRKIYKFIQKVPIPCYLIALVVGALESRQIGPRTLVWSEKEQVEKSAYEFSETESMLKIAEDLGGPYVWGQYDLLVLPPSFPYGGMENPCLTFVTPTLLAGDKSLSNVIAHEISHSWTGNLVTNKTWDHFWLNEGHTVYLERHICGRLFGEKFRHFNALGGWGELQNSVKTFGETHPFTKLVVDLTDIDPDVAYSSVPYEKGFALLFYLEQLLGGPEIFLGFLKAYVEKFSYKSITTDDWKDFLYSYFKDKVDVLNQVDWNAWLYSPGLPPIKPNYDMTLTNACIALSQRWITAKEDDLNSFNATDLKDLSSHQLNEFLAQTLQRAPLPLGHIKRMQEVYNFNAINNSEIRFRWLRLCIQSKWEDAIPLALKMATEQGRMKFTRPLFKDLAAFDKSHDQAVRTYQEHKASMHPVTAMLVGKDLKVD
Procedure: The compounds of the invention were incubated in a series of dilutions with 200 nM of recombinant enzyme in assay buffer (100 mM Tris-HCl, 100 mM NaCl, 5 mg/ml fatty-acid free BSA, 10% DMSO, pH 8.0) for 10 min at room temperature to allow binding between LTA4 hydrolase and the inhibitors. LTA4 was prepared by alkaline hydrolysis of LTA4 methyl ester (Biomol, Plymouth Meeting, Pa., or Cayman Chemicals, Ann Arbor, Mich.). A solution of 10 μg of the ester was dried under a nitrogen stream and redissolved in 60 μl of a solution of 80% acetone and 20% 0.25 M NaOH. After incubation for 40 min at room temperature the resulting approximately 500 mM tock of LTA4 was kept at −80° C. for no more than a few days prior to use.
Immediately before the assay, LTA4 was diluted to a concentration of 10 μM in assay buffer (without DMSO) and added to the reaction mixture to a final concentration of 2 μM to initiate the enzyme reaction. […] The samples were then kept at 4° C. overnight to complete protein precipitation and centrifuged for 15 min at 1800 g.

[2] = tested on: human whole blood; test: Ex vivo assay testing inhibitory activity in human whole blood after stimulation with calcium ionophor (LTB4 by ELISA); type: cell-based; conditions: 0.5 h, Ionomycin 20 μM, 30 min at 37° C., read-out: hWBIC50
Procedure: (2) Ex vivo assay testing inhibitory activity in human whole blood after stimulation with calcium ionophor.
Human blood was collected in heparin-containing Vacutainer tubes. […] Then 4 μl of a series of compound dilutions (in DMSO) were added, followed by a 15 min incubation at 37° C. with gentle shaking. After that, blood samples were stimulated by adding Ionomycin (Calbiochem) to a final concentration of 20 μM. After another incubation at 37° C. for 30 min, samples were centrifuged for 5 min at 1800 g and 4° C. Supernatants were taken and LTB4 concentrations were determined using a commercially available enzyme-linked immunosobentassay (R&D Systems, Minneapolis, Minn.) according to the manufacturer's instructions.

[3] = tested on: colitis symptoms; conditions: eight weeks of treatment; cited from earlier work

Structure (SMILES)	IC50 [1]	IC50 [2]	colitis symptoms in a primate model [3]
O=C(O)CN1CCC[C@H]1COc1ccc(Cc2ccccc2)cc1 [Example 35, [(S)-2-(4-Benzyl-phenoxymethyl)-pyrrolidin-1-yl]-acetic acid TFA salt]	5 to 20 µM		
Cc1ccc(Oc2ccc(OC[C@@H]3CCCN3CCCC(=O)O)cc2)cc1 [Example 37, 4-[(S)-2-(4-p-Tolyloxy-phenoxymethyl)-pyrrolidin-1-yl]-butylic acid HCl]	< 5 µM		
c1csc(-c2ccc(Cc3ccc(OC[C@@H]4CCCN4)cc3)cc2)c1 [Example 117, (S)-2-[4-(2-thiophen-benzyl)-phenoxymethyl]-pyrrolidine hydrogen chloride salt]	< 5 µM	< 5 µM	
CN(CCCOc1ccc(Cc2ccccc2)cc1)CCC(=O)O.Cl [SC57461]			significantly improved colitis symptoms
